Source: paper PMC3557921 (Journal of Medicinal Chemistry, 2012)

Biological target: T1, β-catenin (armadillo-repeat region of human β-catenin) (Homo sapiens, UniProt P35222)
T1 sequence (P35222 134-671 limits assumed): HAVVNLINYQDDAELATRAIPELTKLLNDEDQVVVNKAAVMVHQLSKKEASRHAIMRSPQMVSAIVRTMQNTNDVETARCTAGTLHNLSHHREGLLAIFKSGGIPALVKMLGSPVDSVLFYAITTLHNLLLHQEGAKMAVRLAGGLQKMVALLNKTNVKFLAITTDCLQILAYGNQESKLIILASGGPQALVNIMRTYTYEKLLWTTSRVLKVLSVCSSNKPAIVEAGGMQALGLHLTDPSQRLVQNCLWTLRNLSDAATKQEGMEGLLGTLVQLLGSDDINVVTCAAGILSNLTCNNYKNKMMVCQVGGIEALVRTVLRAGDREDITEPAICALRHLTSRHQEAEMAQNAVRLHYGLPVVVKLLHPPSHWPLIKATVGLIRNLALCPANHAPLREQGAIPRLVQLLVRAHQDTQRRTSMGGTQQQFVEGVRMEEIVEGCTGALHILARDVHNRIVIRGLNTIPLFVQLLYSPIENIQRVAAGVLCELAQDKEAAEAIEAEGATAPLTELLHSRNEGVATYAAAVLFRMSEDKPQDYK
Assay: 1D 1H STD-NMR
Assay type: binding
Conditions: 30 μM protein, 1 mM ligand; 100 mM Tris, 150 mM NaCl, 2 mM DTT, pH 7.4, 25 °C

O=C1OC2(c3ccccc31)c1cc(Br)c(O)c(Br)c1Oc1c2cc(Br)c(O)c1Br [eosin Y]
1D 1H STD-NMR: predicted ligands fluorescein and eosin Y bind to the protein
